18 compounds from ChEMBL document CHEMBL3045922, “Synthesis of 6-(3-substituted-4H-1,2,4-triazol-4-yl)-2-phenylbenzo[d]oxazoles as potential anticonvulsant agents” (Med Chem Res, 2010) can be followed below.

The structures appear in SMILES notation. The source made the active and inactive calls. No cut-off for these calls is given here. A value given as a limit tells only on which side of the number the result lay.

For data set [1], the system named is Mus musculus. Put plainly: Anticonvulsant activity in Mus musculus Kunming (mouse) assessed as protection against maximal electroshock-induced seizures at 100 mg/kg, ip at 4 hr. Format: functional, organism-based. More on the design: dose 100 mg/kg. A general note: The maximal electroshock test induces tonic seizures with an electrical stimulus.
For data set [2], the system named is Mus musculus. The data set is described as follows: Neurotoxicity in Mus musculus Kunming (mouse) assessed as minimal motor impairment at 300 mg/kg, ip at 4 hr by rotarod test. Conditions: in vivo. More on the design: dose 300 mg/kg, route intraperitoneal. Type of data set: toxicity, organism-based.
For data set [3], the system named is Mus musculus. Put plainly: Anticonvulsant activity in Mus musculus Kunming (mouse) assessed as protection against subcutaneous pentylenetetrazole-induced seizures at 100 mg/kg, ip at 4 hr. Format: functional, organism-based. More on the design: dose 100 mg/kg.
Data set [4] concerns Mus musculus. The data set is described as follows: Neurotoxicity in Mus musculus Kunming (mouse) assessed as minimal motor impairment at 300 mg/kg, ip at 0.5 hr by rotarod test. Format: toxicity, organism-based. More on the design: dose 300 mg/kg, route intraperitoneal. As to conditions: in vivo. In general terms: The rotarod test checks motor coordination on a turning rod.

Data set [5] relates to Mus musculus. Put plainly: Anticonvulsant activity in Mus musculus Kunming (mouse) assessed as protection against maximal electroshock-induced seizures at 100 mg/kg, ip at 0.5 hr. Format: functional, organism-based. More on the design: dose 100 mg/kg.
The nature of data set [6]: Neurotoxicity in ip dosed Mus musculus Kunming (mouse) assessed as minimal motor impairment at 0.5 hr by rotarod test. Conditions: in vivo. Format: toxicity, organism-based.
Data set [7] concerns Mus musculus. Put plainly: Anticonvulsant activity in ip dosed Mus musculus Kunming (mouse) assessed as protection against maximal electroshock-induced seizures at 0.5 hr. Format: functional.
The species named for data set [8] is Mus musculus. The data set is described as follows: Protective index, ratio of TD50 for Mus musculus Kunming (mouse) to ED50 for inhibition of maximal electroshock-induced seizure in Mus musculus Kunming (mouse). Type of data set: functional.
In data set [9] the test system is Mus musculus. Put plainly: Anticonvulsant activity in Mus musculus Kunming (mouse) assessed as protection against subcutaneous pentylenetetrazole-induced seizures at 100 mg/kg, ip at 0.5 hr. Type of data set: functional, organism-based. More on the design: dose 100 mg/kg.
Data set [10] has as its system Mus musculus. Put plainly: Anticonvulsant activity in ip dosed Mus musculus Kunming (mouse) assessed as protection against subcutaneous pentylenetetrazole-induced seizures at 0.5 hr. Type of data set: functional.
Data set [11] concerns Mus musculus. The data set is described as follows: Protective index, ratio of TD50 for Mus musculus Kunming (mouse) to ED50 for inhibition of maximal subcutaneous pentylenetetrazole-induced seizure in Mus musculus Kunming (mouse). Format: functional.

On to `CCCCCCCCCc1nncn1-c1ccc2nc(-c3ccccc3)oc2c1`, for which the result with Mus musculus [1], in the data set on Mus musculus [3] and in the data set on Mus musculus [5] was inactive. Besides, the Activity result with Mus musculus [2] and in the data set with Mus musculus [4] was “Toxic” each time.
On to `c1ccc(-c2nc3ccc(-n4cnnc4-c4ccccc4)cc3o2)cc1`, for which the TD50 (usually the 50% point of the dose-response relation for the toxic effect studied) at 0.5 h in [6] was 266 mg/kg. Moreover, in the data set with Mus musculus [7], the 50% effective dose (ED50) (usually the dose that gives a 50% effect, or the effect in half of the subjects) turned out to be 65.4 mg/kg. The result in the data set on Mus musculus [3] was inactive. Also, the result with Mus musculus [5] was Active. In addition, the “Ratio TD50/ED50” value in the data set listed under Mus musculus [8] is 4.1.
Regarding `Clc1ccc(-c2nncn2-c2ccc3nc(-c4ccccc4)oc3c2)cc1`, the outcome with Mus musculus [1], in the data set with Mus musculus [3] and with Mus musculus [9] was inactive. For the same compound, the Activity entry in the data set on Mus musculus [2] and in the data set on Mus musculus [4] was “Non-toxic” throughout.
With `c1ccc(-c2nc3ccc(-n4cnnc4)cc3o2)cc1`, the ED50 came to 69.8 mg/kg with Mus musculus [10] and 29.5 mg/kg in the data set on Mus musculus [7]. For the same compound, the result with Mus musculus [1] and with Mus musculus [5] was Active. Further, in data set [6], the TD50 at 0.5 h came out at 285 mg/kg. In addition, the figures for the “Ratio TD50/ED50” value with Mus musculus [11] and in the data set filed under Mus musculus [8] were 4.1 and 9.7, respectively. For the same compound, the Activity entry in the data set on Mus musculus [2] is “Non-toxic”. For the same compound, the result in the data set with Mus musculus [3] and in the data set with Mus musculus [9] was inactive.
Take `CCc1nncn1-c1ccc2nc(-c3ccccc3)oc2c1`: the Activity result with Mus musculus [2] is given as “Non-toxic”. In addition, the result with Mus musculus [3] was inactive.
With `CCCCc1nncn1-c1ccc2nc(-c3ccccc3)oc2c1`, the outcome in the data set with Mus musculus [1] and with Mus musculus [3] was inactive. In addition, the Activity result with Mus musculus [2] and with Mus musculus [4] was “Non-toxic” in each case.
With `COc1cccc(-c2nncn2-c2ccc3nc(-c4ccccc4)oc3c2)c1`, the outcome with Mus musculus [1], in the data set with Mus musculus [3] and in the data set with Mus musculus [9] was inactive. Moreover, in [6], the TD50 at 0.5 h was 249 mg/kg. Further, in the data set with Mus musculus [7], the ED50 stood at 66.5 mg/kg. In the data set with Mus musculus [2], the Activity entry was “Non-toxic”. Besides, the outcome with Mus musculus [5] was Active. For the same compound, the “Ratio TD50/ED50” value in the data set listed under Mus musculus [8] was determined as 3.7.
As to `CCCCCc1nncn1-c1ccc2nc(-c3ccccc3)oc2c1`, the result in the data set on Mus musculus [1], in the data set on Mus musculus [3], with Mus musculus [5] and with Mus musculus [9] was inactive.
As for `Cc1nncn1-c1ccc2nc(-c3ccccc3)oc2c1`, the ED50 in the data set with Mus musculus [10] came out at 75.6 mg/kg; in the data set with Mus musculus [7] it was 26.5 mg/kg. Moreover, the result in the data set on Mus musculus [1] and in the data set on Mus musculus [5] was Active. The TD50 at 0.5 h in data set [6] came out at 167 mg/kg. For the same compound, the “Ratio TD50/ED50” value in the data set with Mus musculus [11] is given as 2.3; in the data set listed under Mus musculus [8], 6.3. In addition, in the data set on Mus musculus [3], the outcome was inactive. Besides, in the data set with Mus musculus [4], the Activity entry was “Toxic”.
As for `Cc1ccc(-c2nncn2-c2ccc3nc(-c4ccccc4)oc3c2)cc1`, the result in the data set with Mus musculus [1] and in the data set with Mus musculus [3] was inactive. Further, the Activity entry with Mus musculus [4] is “Toxic”.
With `Fc1cccc(-c2nncn2-c2ccc3nc(-c4ccccc4)oc3c2)c1`, the outcome with Mus musculus [1], with Mus musculus [3] and in the data set on Mus musculus [9] was inactive. In addition, the Activity result in the data set on Mus musculus [2] and with Mus musculus [4] was “Non-toxic” each time.
With `Clc1cccc(-c2nncn2-c2ccc3nc(-c4ccccc4)oc3c2)c1`, the result with Mus musculus [1] and in the data set with Mus musculus [3] was inactive. The Activity result is listed as “Non-toxic” in the data set on Mus musculus [2] and “Toxic” with Mus musculus [4].
`Fc1ccc(-c2nncn2-c2ccc3nc(-c4ccccc4)oc3c2)cc1`: the result with Mus musculus [1], in the data set on Mus musculus [3] and in the data set with Mus musculus [9] was inactive. In addition, the Activity result in the data set with Mus musculus [2] and in the data set on Mus musculus [4] was “Non-toxic” in each case.
Regarding `Clc1ccccc1-c1nncn1-c1ccc2nc(-c3ccccc3)oc2c1`, the result in the data set on Mus musculus [1], in the data set on Mus musculus [3] and in the data set with Mus musculus [5] was inactive. The Activity result in the data set with Mus musculus [2] and in the data set with Mus musculus [4] was “Non-toxic” in each case.
Regarding `O=[N+]([O-])c1ccc(-c2nncn2-c2ccc3nc(-c4ccccc4)oc3c2)cc1`, the result in the data set on Mus musculus [1], in the data set with Mus musculus [3], in the data set on Mus musculus [5] and in the data set with Mus musculus [9] was inactive.
For `COc1ccc(-c2nncn2-c2ccc3nc(-c4ccccc4)oc3c2)cc1`, the result with Mus musculus [1], with Mus musculus [3] and in the data set on Mus musculus [9] was inactive. The Activity result in the data set on Mus musculus [2] and in the data set with Mus musculus [4] was “Non-toxic” throughout.
For the compound `CCCc1nncn1-c1ccc2nc(-c3ccccc3)oc2c1`, the outcome in the data set on Mus musculus [1] and with Mus musculus [3] was inactive. Also, the Activity entry with Mus musculus [2] is recorded as “Non-toxic”.
Regarding `NC(=O)N1c2ccccc2C=Cc2ccccc21` [CARBAMAZEPINE], the ED50 in the data set on Mus musculus [10] was over 100 mg/kg. The figures for the “Ratio TD50/ED50” value with Mus musculus [11] and in the data set filed under Mus musculus [8] were under 1.3 and 6.4, respectively.
